Source: the NIST ThermoML archive (doi:10.1021/je3007666)
Numbers after ± are expanded uncertainties.

Assay: relative permittivity at zero frequency (dimensionless); xn = mol fraction of the nth substance listed
Settings: 100 kPa, Liquid, Dielectrometer

CC(C)CO [2-methyl-1-propanol] + CC(C)(C)O
relative permittivity at zero frequency
Settings	288.15 K	293.15 K	298.15 K	303.15 K	308.15 K
x2 = 0	19.51 ± 0.06	18.71 ± 0.06	17.96 ± 0.06	17.23 ± 0.06	16.53 ± 0.06
x2 = 0.0497	19.46 ± 0.06	18.65 ± 0.06	17.85 ± 0.06	17.09 ± 0.06	16.37 ± 0.06
x2 = 0.0999	19.37 ± 0.06	18.52 ± 0.06	17.74 ± 0.06	16.96 ± 0.06	16.21 ± 0.06
x2 = 0.1502	19.24 ± 0.06	18.38 ± 0.06	17.57 ± 0.06	16.78 ± 0.06	16.05 ± 0.06
x2 = 0.2002	19.09 ± 0.06	18.24 ± 0.06	17.43 ± 0.06	16.62 ± 0.06	15.84 ± 0.06
x2 = 0.2497	18.94 ± 0.06	18.08 ± 0.06	17.25 ± 0.06	16.42 ± 0.06	15.63 ± 0.06
x2 = 0.2998	18.78 ± 0.06	17.89 ± 0.06	17.08 ± 0.06	16.22 ± 0.06	15.44 ± 0.06
x2 = 0.3507	18.6 ± 0.06	17.71 ± 0.06	16.88 ± 0.06	16.01 ± 0.06	15.2 ± 0.06
x2 = 0.4003	18.43 ± 0.06	17.53 ± 0.06	16.7 ± 0.06	15.8 ± 0.06	14.97 ± 0.06
x2 = 0.4497	18.26 ± 0.06	17.36 ± 0.06	16.49 ± 0.06	15.57 ± 0.06	14.74 ± 0.06
x2 = 0.4998	18.11 ± 0.06	17.15 ± 0.06	16.3 ± 0.06	15.34 ± 0.06	14.47 ± 0.06
x2 = 0.5501	17.93 ± 0.06	16.96 ± 0.06	16.07 ± 0.06	15.07 ± 0.06	14.22 ± 0.06
x2 = 0.6012	17.74 ± 0.06	16.74 ± 0.06	15.83 ± 0.06	14.8 ± 0.06	13.93 ± 0.06
x2 = 0.649	17.53 ± 0.06	16.5 ± 0.06	15.58 ± 0.06	14.52 ± 0.06	13.61 ± 0.06
x2 = 0.7003	17.3 ± 0.06	16.24 ± 0.06	15.28 ± 0.06	14.2 ± 0.06	13.27 ± 0.06
x2 = 0.751	17.02 ± 0.06	15.93 ± 0.06	14.96 ± 0.06	13.84 ± 0.06	12.91 ± 0.06
x2 = 0.8007	16.68 ± 0.06	15.59 ± 0.06	14.59 ± 0.06	13.46 ± 0.06	12.49 ± 0.06
x2 = 0.8499	16.3 ± 0.06	15.17 ± 0.06	14.17 ± 0.06	13.03 ± 0.06	12.06 ± 0.06
x2 = 0.9002	15.8 ± 0.06	14.67 ± 0.06	13.69 ± 0.06	12.53 ± 0.06	11.55 ± 0.06
x2 = 0.9489	15.21 ± 0.06	14.08 ± 0.06	13.13 ± 0.06	11.97 ± 0.06	11.01 ± 0.06
